US11168073B2, “3,3-difluoroallylamines or salts thereof and pharmaceutical compositions comprising the same” (YUHAN CORPORATION, priority 2018, dated 2021)
Where a name gives a salt, the structure may show the parent alone.

Key:
Assay type in all cases: biochemical
[1] = biological target: T1, recombinant human DAO (diamine oxidase) (Homo sapiens, UniProt P19801); test: Activity evaluation on recombinant human DAO (Amplex Red/HRP-coupled assay, 1 mM putrescine substrate); settings: 1 mM putrescine, read-out: Inhibitory Activity (IC50, nM) DAO
T1 construct: purchased R&D systems
T1 sequence (P19801 20-751): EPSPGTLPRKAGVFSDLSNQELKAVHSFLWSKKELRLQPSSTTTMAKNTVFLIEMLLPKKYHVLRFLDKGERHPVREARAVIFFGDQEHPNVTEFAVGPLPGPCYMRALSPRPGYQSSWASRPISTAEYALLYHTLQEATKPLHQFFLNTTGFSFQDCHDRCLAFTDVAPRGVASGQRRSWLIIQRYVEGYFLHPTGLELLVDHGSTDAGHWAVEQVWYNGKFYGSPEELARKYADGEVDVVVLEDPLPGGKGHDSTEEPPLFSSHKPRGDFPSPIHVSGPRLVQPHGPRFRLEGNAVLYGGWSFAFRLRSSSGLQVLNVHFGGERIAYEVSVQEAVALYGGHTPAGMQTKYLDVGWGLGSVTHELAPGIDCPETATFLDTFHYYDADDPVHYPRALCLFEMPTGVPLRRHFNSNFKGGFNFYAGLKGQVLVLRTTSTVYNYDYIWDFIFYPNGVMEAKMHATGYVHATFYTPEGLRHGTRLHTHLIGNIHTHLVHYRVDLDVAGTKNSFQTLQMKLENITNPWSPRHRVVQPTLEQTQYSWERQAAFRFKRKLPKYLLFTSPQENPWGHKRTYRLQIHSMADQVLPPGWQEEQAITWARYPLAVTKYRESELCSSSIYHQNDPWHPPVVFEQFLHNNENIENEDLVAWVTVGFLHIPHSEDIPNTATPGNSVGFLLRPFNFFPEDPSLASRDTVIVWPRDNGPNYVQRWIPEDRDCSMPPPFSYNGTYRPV
In short: (§1)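 Enzyme activity was measured as fluorescence rate (ex 544, em 590 nm) from resorufin formed by HRP-coupled H2O2 oxidation of 200 uM Amplex Red. Compounds were first incubated 30 min at 37 °C with enzyme at pH 7.4; substrates were 0.5 mM tyramine (MAO-A), 1 mM benzylamine (MAO-B) and 1 mM putrescine (DAO).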

[2] = biological target: T2, recombinant human MAO-A (monoamine oxidase-A) (Homo sapiens, UniProt P21397); test: Activity evaluation on recombinant human MAO-A (Amplex Red/HRP-coupled assay, 0.5 mM tyramine substrate); settings: 0.5 mM tyramine, read-out: Inhibitory Activity (IC50, nM) MAO-A
T2 construct: purchased Sigma-Aldrich
T2 sequence (P21397 1-527): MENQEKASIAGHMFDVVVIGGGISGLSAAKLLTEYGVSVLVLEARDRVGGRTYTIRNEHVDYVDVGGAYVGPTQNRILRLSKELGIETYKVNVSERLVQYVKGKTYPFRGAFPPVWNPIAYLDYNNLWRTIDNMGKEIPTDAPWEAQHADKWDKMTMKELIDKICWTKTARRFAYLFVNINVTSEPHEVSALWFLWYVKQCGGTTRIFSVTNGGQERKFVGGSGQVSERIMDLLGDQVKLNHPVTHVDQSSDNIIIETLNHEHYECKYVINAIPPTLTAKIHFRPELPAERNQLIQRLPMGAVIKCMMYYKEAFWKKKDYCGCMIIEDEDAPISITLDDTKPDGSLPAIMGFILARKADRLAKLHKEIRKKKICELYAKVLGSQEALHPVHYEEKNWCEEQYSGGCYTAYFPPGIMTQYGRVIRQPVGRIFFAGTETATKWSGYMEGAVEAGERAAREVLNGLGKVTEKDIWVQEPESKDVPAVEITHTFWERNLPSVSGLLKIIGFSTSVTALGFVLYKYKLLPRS
In short: as §1

[3] = biological target: T3, recombinant human MAO-B (monoamine oxidase-B) (Homo sapiens, UniProt P27338); test: Activity evaluation on recombinant human MAO-B (Amplex Red/HRP-coupled assay, 1 mM benzylamine substrate); settings: 1 mM benzylamine, read-out: Inhibitory Activity (IC50, nM) MAO-B
T3 construct: purchased Sigma-Aldrich
T3 sequence (P27338 1-520): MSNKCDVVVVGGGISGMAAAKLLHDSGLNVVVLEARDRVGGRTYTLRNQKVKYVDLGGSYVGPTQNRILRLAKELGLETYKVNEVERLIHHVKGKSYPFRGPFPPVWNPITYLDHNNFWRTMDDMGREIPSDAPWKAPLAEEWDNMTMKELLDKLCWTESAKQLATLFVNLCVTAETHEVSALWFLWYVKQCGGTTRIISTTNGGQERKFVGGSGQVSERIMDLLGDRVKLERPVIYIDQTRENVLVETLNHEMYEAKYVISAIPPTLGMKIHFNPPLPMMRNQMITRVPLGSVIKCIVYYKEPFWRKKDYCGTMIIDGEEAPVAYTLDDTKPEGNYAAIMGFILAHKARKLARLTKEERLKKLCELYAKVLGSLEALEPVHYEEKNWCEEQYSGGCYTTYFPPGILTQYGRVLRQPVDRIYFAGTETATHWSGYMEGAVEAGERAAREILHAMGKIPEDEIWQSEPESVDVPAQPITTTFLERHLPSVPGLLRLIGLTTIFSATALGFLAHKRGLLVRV
In short: as §1

recombinant human VAP-1 = biological target: T4, recombinant human VAP-1 (Homo sapiens, UniProt Q16853); test: Activity evaluation on recombinant human VAP-1 (Amplex Red/HRP-coupled hydrogen peroxide assay, benzylamine substrate); settings: recombinant human VAP-1; 30 min preincubation at 37° C.; 1 mM benzylamine; read-out: Inhibitory Activity (IC50, nM) human VAP-1
T4 construct: purchased R&D systems
T4 sequence (Q16853 1-763): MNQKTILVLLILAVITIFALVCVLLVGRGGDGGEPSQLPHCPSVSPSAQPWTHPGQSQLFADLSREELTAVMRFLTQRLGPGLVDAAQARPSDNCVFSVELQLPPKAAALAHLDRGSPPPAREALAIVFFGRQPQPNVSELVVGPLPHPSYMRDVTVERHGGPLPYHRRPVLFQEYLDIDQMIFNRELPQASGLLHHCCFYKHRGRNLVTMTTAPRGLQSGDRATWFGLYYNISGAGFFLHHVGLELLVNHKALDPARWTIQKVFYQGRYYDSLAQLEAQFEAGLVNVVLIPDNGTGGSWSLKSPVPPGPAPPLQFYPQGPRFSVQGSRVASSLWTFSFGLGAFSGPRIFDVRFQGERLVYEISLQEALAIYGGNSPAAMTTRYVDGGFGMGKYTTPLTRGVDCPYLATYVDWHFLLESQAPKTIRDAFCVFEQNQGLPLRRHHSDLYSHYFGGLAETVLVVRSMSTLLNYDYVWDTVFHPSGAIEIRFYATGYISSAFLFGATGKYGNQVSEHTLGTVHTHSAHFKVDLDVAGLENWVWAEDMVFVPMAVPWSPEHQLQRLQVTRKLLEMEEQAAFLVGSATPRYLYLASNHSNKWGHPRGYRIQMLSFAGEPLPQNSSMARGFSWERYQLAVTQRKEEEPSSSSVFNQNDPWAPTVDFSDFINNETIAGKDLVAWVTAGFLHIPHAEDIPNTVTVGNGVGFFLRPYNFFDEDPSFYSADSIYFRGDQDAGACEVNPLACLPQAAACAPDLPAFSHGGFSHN
In short: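 Recombinant human VAP-1 in 50 mM sodium phosphate pH 7.4 preincubated 30 min at 37 °C with compound (8-point 1:3 series, <1% DMSO), then 1 mM benzylamine, 200 uM Amplex Red, 1 U/mL HRP added. H2O2-derived resorufin fluorescence (ex 544/em 590) followed 1–2 h; IC50 from four-parameter fit of rate inhibition.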

| IC50 [1] [nM] | IC50 [2] [nM] | IC50 [3] [nM] | IC50 (recombinant human VAP-1) [nM] | Compound |
| --- | --- | --- | --- | --- |
| 160 | > 100000 | > 100000 | 1.5 | NCC(Cn1ncn(-c2ccnc(-c3ccc(N4CCNCC4)cc3)c2)c1=O)=C(F)F [Example 62, 2-[2-(aminomethyl)-3,3-difluoro-allyl]-4-[2-(4-piperazin-1-ylphenyl)-4-pyridyl]-1,2,4-triazol-3-one Ditrifluoroacetate] |
| 110 | > 100000 | 16000 | 0.7 | CN(C)c1ccc(-c2cc(-n3cnn(CC(CN)=C(F)F)c3=O)ccn2)cn1 [Example 63, 2-[2-(aminomethyl)-3,3-difluoro-allyl]-4-[2-[6-(dimethylamino)-3-pyridyl]-4-pyridyl]-1,2,4-triazol-3-one Trifluoroacetate] |
| 270 | > 100000 | 480 | 0.4 | NCC(Cn1ncn(-c2ccnc(-c3ccc4c(c3)OCO4)c2)c1=O)=C(F)F [Example 64, 2-[2-(aminomethyl)-3,3-difluoro-allyl]-4-[2-(1,3-benzodioxol-5-yl)-4-pyridyl]-1,2,4-triazol-3-one Trifluoroacetate] |
| 290 | > 100000 | 12000 | 0.3 | Cc1cc(-c2cc(-n3cnn(CC(CN)=C(F)F)c3=O)ccn2)cc2c1NC(=O)CC2 [Example 65, 6-[4-[1-[2-(aminomethyl)-3,3-difluoro-allyl]-5-oxo-1,2,4-triazol-4-yl]-2-pyridyl]-8-methyl-3,4-dihydro-1H-quinolin-2-one Trifluoroacetate] |
| 250 | > 100000 | 4800 | 0.6 | CN1C(=O)CCc2cc(-c3cc(-n4cnn(CC(CN)=C(F)F)c4=O)ccn3)ccc21 [Example 66, 6-[4-[1-[2-(aminomethyl)-3,3-difluoro-allyl]-5-oxo-1,2,4-triazol-4-yl]-2-pyridyl]-1-methyl-3,4-dihydroquinolin-2-one Trifluoroacetate] |
| 490 | > 100000 | 8300 | 0.9 | CCn1cc(-c2cc(-n3cnn(CC(CN)=C(F)F)c3=O)ccn2)cn1 [Example 67, 2-[2-(aminomethyl)-3,3-difluoro-allyl]-4-[2-(1-ethylpyrazol-4-yl)-4-pyridyl]-1,2,4-triazol-3-one Trifluoroacetate] |
| 2100 | > 100000 | 55000 | 0.5 | Cc1cc(-c2ccc(S(C)(=O)=O)cc2)cnc1-n1cnn(CC(CN)=C(F)F)c1=O [Example 68, 2-[2-(aminomethyl)-3,3-difluoro-allyl]-4-[3-methyl-5-(4-methylsulfonylphenyl)-2-pyridyl]-1,2,4-triazol-3-one Trifluoroacetate] |
| > 100000 | > 100000 | > 100000 | 1.2 | Cc1cc(-c2ccc(N3CCNCC3)cc2)cnc1-n1cnn(CC(CN)=C(F)F)c1=O [Example 69, 2-[2-(aminomethyl)-3,3-difluoro-allyl]-4-[3-methyl-5-(4-piperazin-1-ylphenyl)-2-pyridyl]-1,2,4-triazol-3-one Ditrifluoroacetate] |
| 1500 | > 100000 | 5800 | 0.7 | Cc1cc(-c2ccc(C(F)(F)F)nc2)cnc1-n1cnn(CC(CN)=C(F)F)c1=O [Example 70, 2-[2-(aminomethyl)-3,3-difluoro-allyl]-4-[3-methyl-5-[6-(trifluoromethyl)-3-pyridyl]-2-pyridyl]-1,2,4-triazol-3-one Trifluoroacetate] |
| > 100000 | > 100000 | > 100000 | 0.8 | Cc1cc(-c2ccc(N(C)C)nc2)cnc1-n1cnn(CC(CN)=C(F)F)c1=O [Example 71, 2-[2-(aminomethyl)-3,3-difluoro-allyl]-4-[5-[6-(dimethylamino)-3-pyridyl]-3-methyl-2-pyridyl]-1,2,4-triazol-3-one Trifluoroacetate] |
| 57000 | > 100000 | 1500 | 0.5 | Cc1cc(-c2ccc3c(c2)OCO3)cnc1-n1cnn(CC(CN)=C(F)F)c1=O [Example 72, 2-[2-(aminomethyl)-3,3-difluoro-allyl]-4-[5-(1,3-benzodioxol-5-yl)-3-methyl-2-pyridyl]-1,2,4-triazol-3-one Trifluoroacetate] |
| 6100 | > 100000 | 7200 | 0.3 | Cc1cc(-c2cc(C)c3c(c2)CCC(=O)N3)cnc1-n1cnn(CC(CN)=C(F)F)c1=O [Example 73, 6-[6-[1-[2-(aminomethyl)-3,3-difluoro-allyl]-5-oxo-1,2,4-triazol-4-yl]-5-methyl-3-pyridyl]-8-methyl-3,4-dihydro-1H-quinolin-2-one Trifluoroacetate] |
| 6500 | > 100000 | 7500 | 0.3 | Cc1cc(-c2ccc3c(c2)CCC(=O)N3C)cnc1-n1cnn(CC(CN)=C(F)F)c1=O [Example 74, 6-[6-[1-[2-(aminomethyl)-3,3-difluoro-allyl]-5-oxo-1,2,4-triazol-4-yl]-5-methyl-3-pyridyl]-1-methyl-3,4-dihydroquinolin-2-one Trifluoroacetate] |
